In doi:10.1101/2022.12.11.519956v1 (biorxiv, 2022):

Molecular target: T1, SauUSI (Staphylococcus aureus, UniProt A0A0H2XK17)
T1 sequence (A0A0H2XK17 1-953): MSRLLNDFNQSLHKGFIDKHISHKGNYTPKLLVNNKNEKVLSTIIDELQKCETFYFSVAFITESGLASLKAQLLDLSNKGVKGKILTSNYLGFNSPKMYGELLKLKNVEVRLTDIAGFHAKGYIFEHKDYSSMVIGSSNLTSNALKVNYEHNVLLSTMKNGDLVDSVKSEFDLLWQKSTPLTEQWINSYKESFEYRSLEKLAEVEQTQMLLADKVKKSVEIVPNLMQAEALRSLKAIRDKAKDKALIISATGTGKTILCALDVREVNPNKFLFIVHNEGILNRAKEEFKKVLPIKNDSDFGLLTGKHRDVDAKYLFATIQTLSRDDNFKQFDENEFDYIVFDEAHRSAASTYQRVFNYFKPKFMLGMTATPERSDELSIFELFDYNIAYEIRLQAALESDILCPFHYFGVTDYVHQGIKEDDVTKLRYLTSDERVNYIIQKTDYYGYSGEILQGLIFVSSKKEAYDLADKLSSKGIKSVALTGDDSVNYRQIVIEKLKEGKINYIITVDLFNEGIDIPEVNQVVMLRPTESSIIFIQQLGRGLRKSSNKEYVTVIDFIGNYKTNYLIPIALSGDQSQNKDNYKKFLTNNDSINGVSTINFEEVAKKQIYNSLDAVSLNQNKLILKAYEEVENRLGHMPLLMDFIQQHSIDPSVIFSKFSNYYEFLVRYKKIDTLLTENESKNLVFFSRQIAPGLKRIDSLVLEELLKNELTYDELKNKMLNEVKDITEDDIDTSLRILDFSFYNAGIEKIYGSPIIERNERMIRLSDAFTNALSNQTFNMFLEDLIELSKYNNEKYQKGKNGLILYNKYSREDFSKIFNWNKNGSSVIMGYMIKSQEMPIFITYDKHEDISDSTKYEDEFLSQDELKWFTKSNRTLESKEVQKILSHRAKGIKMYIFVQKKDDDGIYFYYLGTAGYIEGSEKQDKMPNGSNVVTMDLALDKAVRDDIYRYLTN
Assay: biochemical

Nc1ncnc2c1ncn2[C@@H]1O[C@H](COP(=O)(O)OP(=O)(O)OP(=O)(O)O)[C@@H](O)[C@H]1O [ATP]
IC50: ~760 µM
